From patent US20230029259A1, “COMBINATION OF IAP INHIBITORS AND PARP OR MEK INHIBITORS OR OTHER CHEMOTHERAPEUTIC AGENTS” (Ascentage Pharma (Suzhou) Co., Ltd., priority 2019, published 2023)
“And” between values parts separate entries of the source, which are not always exact repeats. Identical values can stand only once.

Legend:
[1] = test system: PA1170 pancreatic cancer patient-derived xenograft model; assay: Antitumor activity in PA1170 pancreatic cancer PDX model, confirmation study (Biological Example 3); format: in vivo, mice; conditions: for RTV @ D29 / T/C (%) @ D29: day 29, Example 24 10 mg/kg IV, olaparib 50 mg/kg p.o. BID, trametinib 0.3 mg/kg p.o. QD, 4 weeks
[2] = test system: pancreatic cancer patient derived xenograft model PA6265; assay: Antitumor activity in subcutaneous pancreatic cancer PDX model PA6265 (Biological Example 1); format: in vivo, BALB/c nude mice; conditions: olaparib 50 mg/kg p.o. BID, trametinib 0.3 mg/kg p.o. QD, 4 weeks; for T/C (%) @ D29: day 29 (text: day 28), Example 24 10 mg/kg i.v. QW; for RTV @ D29: day 29, Example 24 10 mg/kg i.v. QW
Excerpt: (§1) Balb/c nude, female, 4-6 weeks, weighing approximately 18-22 g, which were purchased from GemPharmatech Co., Ltd (Nanjing, Jiangsu).
(§2) All of the PDX models were originally established from a surgically resected clinical sample (cancer type: pancreatic adenocarcinoma), and implanted in nude mice defined as passage 0 (P0). The next passage implanted from P0 tumor was defined as passage1 (P1), and so on during continual implantation in mice. The frozen tumor fragments were revived in NOD SCID mice, when the tumors were developed to suitable size, they were passaged to Balb/c nude mice. The P4-P7 tumors were used for the study.
(§3) Each group consisted of 5 tumor-bearing mice.
(§4) The protocol and any amendment(s) or procedures involving the care and use of animals in this study were reviewed and approved by the Institutional Animal Care and Use Committee (IACUC) of CrownBio prior to execution. During the study, the care and use of animals were conducted in accordance with the regulations of the Association for Assessment and Accreditation of Laboratory Animal Care (AAALAC). After tumor inoculation, the animals were checked daily for morbidity and mortality. During routine monitoring, the animals were checked for any effects of tumor growth and treatments on behavior such as mobility, food and water consumption, body weight gain/loss, eye/hair matting and any other abnormalities. Mortality and observed clinical signs were recorded for individual animals in detail.
(§5) After randomization, tumor volumes were measured twice per week in two dimensions using a caliper, and the volume was expressed in mm^3 using the formula: […]
(§6) where V is tumor volume, L is tumor length (the longest tumor dimension) and W is tumor width (perpendicular to L). Body weight was measured twice per week. Dosing as well as tumor and body weight measurements were conducted in a Laminar Flow Cabinet. The body weights and tumor volumes were measured by using StudyDirector™ software (version 3.1.399.19).
(§7) Relative tumor volume (RTV) was calculated using the following formula: […]
(§8) where V1 and Vt are the average tumor volumes on the first day of treatment (day 1) and the average tumor volumes on a certain time point (day t).
(§9) Synergy score was calculated using the following formula described in Clarke R. Issues in experimental design and endpoint analysis in the study of experimental cytotoxic agents in vivo in breast cancer and other models[J]. Breast Cancer Research & Treatment, 1997, 46(2-3):255-278, which is incorporated by reference in its entirety:
(§10) Synergy score=((A/C)×(B/C))/(AB/C),
(§11) where A is RTV value of drug A; B is RTV value of drug B; C is RTV value of vehicle control. AB is RTV value of combination treatment with A and B. Synergy scores: >1 represents synergistic, =1 represents additive, <1 represents antagonistic (referring to Gould S E et al. Translational value of mouse models in oncology drug development. Nature medicine. 2015 21, 431-439).
(§12) Standard NCI procedures were used to calculate tumor parameters. Percent tumor growth inhibition (% T/C) was calculated as the mean RTV of treated tumors (T) divided by the mean RTV of control tumors (C)×100%. The percentage T/C value is an indication of antitumor effectiveness: a value of T/C<42% is considered significant antitumor activity by the NCI. A T/C value <10% is considered to indicate highly significant antitumor activity, and is the level used by the NCI to justify a clinical trial if toxicity and certain other requirements are met (termed DN-2 level activity). A body weight loss nadir (mean of group) of greater than 20%, or greater than 20% of drug deaths are considered to indicate an excessively toxic dosage.
(§13) The antitumor activity curves of test articles were plotted with the observation time on the X-axis, and corresponding tumor volume (geometric mean) on the Y-axis. A two-tailed t-test was employed to analyze the statistical significance of any difference between the treatment group and the control group. […]

[3] = test system: pancreatic cancer patient derived xenograft (PDX) model PA1170; assay: Antitumor activity in subcutaneous pancreatic cancer PDX model PA1170 (Biological Example 1); format: in vivo, BALB/c nude mice; conditions: day 28, Example 24 10 mg/kg i.v. QW, olaparib 50 mg/kg p.o. BID, trametinib 0.3 mg/kg p.o. QD, 4 ws
Excerpt: as §1, §2, §3, §4, §5, §6, §7, §8, §9, §10, §11, §12, §13

[4] = test system: Panc-1 human pancreatic cancer xenograft model; conditions: Panc-1 xenograft, day 27; abraxane 30 mg/kg i.v. QW×3w, gemcitabine 120 mg/kg i.p. QW×3w
[5] = test system: murine pancreatic cancer model mPA6115; assay: Antitumor activity in murine pancreatic cancer model mPA6115 (Biological Example 2)
Excerpt: C57BL/6, female, 6-8 weeks, weighing approximately 18-20 g, which were purchased from Shanghai Lingchang Biotechnology Co., Ltd (Shanghai, China).
mPA6115 is a murine pancreatic cancer cell line carries a conditional mutant KRAS (KrasLSL-G12D/WT), a constitutive deletion of TP53 (p53−/−) and a Cre driven by the promoter of Pdx1 gene.
Fresh tumor tissues from mice bearing established primary cancer tissues were harvested and cut into small pieces (approximately 2-3 mm in diameter). Tumor fragments, harvested from donor mice, were inoculated subcutaneously at the upper right dorsal flank into corresponding female C57BL/6 mice for tumor development. Treatments were started when the average tumor size reached approximately 150 mm^3. Randomization were performed based on “Matched distribution” method/“Stratified” method using the multi-task method (StudyDirector™ software, version 3.1.399.19)/randomized block design. Each group consisted of 6 tumor-bearing mice.

[6] = mPA6115, day 21, Example 24 0.2 mg/kg i.v. BIW×3w, abraxane 15 mg/kg i.v. QW×3w, gemcitabine 120 mg/kg i.p. QW×3w

Compound	RTV @ D29 [1]	T/C (%) @ D29 [1]	T/C (%) @ D29 ([1]; listed as olaparib) [%]	T/C (%) @ D29 [2] [%]	T/C (%) @ D29 ([2]; listed as olaparib) [%]	RTV @ D29 [2]	RTV @ D28 [3]	T/C (%) @ D28 [3] [%]	T/C (%) @ D28 ([3]; listed as olaparib) [%]	T/C (%) @ D29 ([1]; listed as trametinib) [%]	T/C (%) @ D29 ([2]; listed as trametinib) [%]	T/C (%) @ D28 ([3]; listed as trametinib) [%]	Response @ D28 ([1]; responders/animals (CR, SD))	RTV @ D27 [4]	T/C (%) @ D27 [4]	antitumor effect (in words) ([5]; mPA6115, day 21, single agent 0.2 mg/kg i.v. BIW×3w)	RTV @ D21 [5, 6]	T/C (%) @ D21 [5, 6] [%]	Response @ D21 ([5]; mPA6115, day 21, animals with PD or died / animals)
O=C(c1cc(Cc2n[nH]c(=O)c3ccccc23)ccc1F)N1CCN(C(=O)C2CC2)CC1 [Olaparib]	1.90 ± 1.13	22.33%	22.3	71.78	72	4.07 ± 0.51	3.09 ± 0.73	32.15	32										
CC(=O)Nc1cccc(-n2c(=O)n(C3CC3)c(=O)c3c(Nc4ccc(I)cc4F)n(C)c(=O)c(C)c32)c1 [Trametinib]	7.34 ± 1.49	86.25%		76.01		4.31 ± 0.98	6.59 ± 0.41	68.57		86.3	76	69							
CN[C@@H](C)C(=O)N[C@H]1CN(S(=O)(=O)c2cccc(S(=O)(=O)N3CC[C@H]4CC[C@@H](C(=O)NC(c5ccccc5)c5ccccc5)N4C(=O)[C@@H](NC(=O)[C@H](C)NC)C3)c2)CC[C@H]2CCC(C(=O)NC(c3ccccc3)c3ccccc3)N2C1=O (stereo partly drawn) [the compound of Example 24]	4.29 ± 1.83	50.4% and 50.41%											1/5 SD	2.63 ± 0.51	66.1% and 66.08%	no antitumor effect	32.77 ± 10.36	144.28	5/6 PD, 1/6 died
